Reference: article PMC5714280 (Bioorganic & medicinal chemistry letters, 2017)

Legend:
[1] = test system: MDA-MB-468 cells; assay: Cell viability assay; type: cell-based; conditions: Cell Titer Glo
[2] = Plasma stability, mouse; type: in vitro ADME
[3] = Plasma stability, human; type: in vitro ADME
[4] = Mouse pharmacokinetics, IV and oral, plasma levels; type: in vivo, Male Swiss Mice; conditions: for V / AUC / clearance: 2 mg/kg IV; for AUC / clearance: male, Swiss, mouse, plasma, iv, 2 mg/kg; for AUC: AUC0−¥; for clearance: CL
[5] = Mouse pharmacokinetic exposure, IP, plasma and brain; conditions: male, Swiss, brain, 10 mg/kg
[6] = target: Sigma1 (Homo sapiens, UniProt Q99720); assay: In vitro radio-ligand binding assay using membranes from MDA-MB-468 cancer cells; conditions: for fold decrease in binding affinity compared to IPAG: relative to IPAG
Sequence of Sigma1 (Q99720 whole entry): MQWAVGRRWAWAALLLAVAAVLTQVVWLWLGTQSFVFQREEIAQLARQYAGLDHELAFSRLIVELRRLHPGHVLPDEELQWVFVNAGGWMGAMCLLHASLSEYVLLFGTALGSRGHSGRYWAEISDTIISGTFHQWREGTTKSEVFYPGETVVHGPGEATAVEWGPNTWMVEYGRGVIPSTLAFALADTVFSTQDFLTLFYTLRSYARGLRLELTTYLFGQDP

[7] = Stability in solution and photo-stability; type: physicochemical; conditions: for photo-stability: exposed to normal fluorescent light, aryl iodide
[8] = target: T1, androgen receptor (AR) (Homo sapiens, UniProt P10275); assay: Androgen reporter assay; type: cell-based
T1 sequence (P10275 1-920): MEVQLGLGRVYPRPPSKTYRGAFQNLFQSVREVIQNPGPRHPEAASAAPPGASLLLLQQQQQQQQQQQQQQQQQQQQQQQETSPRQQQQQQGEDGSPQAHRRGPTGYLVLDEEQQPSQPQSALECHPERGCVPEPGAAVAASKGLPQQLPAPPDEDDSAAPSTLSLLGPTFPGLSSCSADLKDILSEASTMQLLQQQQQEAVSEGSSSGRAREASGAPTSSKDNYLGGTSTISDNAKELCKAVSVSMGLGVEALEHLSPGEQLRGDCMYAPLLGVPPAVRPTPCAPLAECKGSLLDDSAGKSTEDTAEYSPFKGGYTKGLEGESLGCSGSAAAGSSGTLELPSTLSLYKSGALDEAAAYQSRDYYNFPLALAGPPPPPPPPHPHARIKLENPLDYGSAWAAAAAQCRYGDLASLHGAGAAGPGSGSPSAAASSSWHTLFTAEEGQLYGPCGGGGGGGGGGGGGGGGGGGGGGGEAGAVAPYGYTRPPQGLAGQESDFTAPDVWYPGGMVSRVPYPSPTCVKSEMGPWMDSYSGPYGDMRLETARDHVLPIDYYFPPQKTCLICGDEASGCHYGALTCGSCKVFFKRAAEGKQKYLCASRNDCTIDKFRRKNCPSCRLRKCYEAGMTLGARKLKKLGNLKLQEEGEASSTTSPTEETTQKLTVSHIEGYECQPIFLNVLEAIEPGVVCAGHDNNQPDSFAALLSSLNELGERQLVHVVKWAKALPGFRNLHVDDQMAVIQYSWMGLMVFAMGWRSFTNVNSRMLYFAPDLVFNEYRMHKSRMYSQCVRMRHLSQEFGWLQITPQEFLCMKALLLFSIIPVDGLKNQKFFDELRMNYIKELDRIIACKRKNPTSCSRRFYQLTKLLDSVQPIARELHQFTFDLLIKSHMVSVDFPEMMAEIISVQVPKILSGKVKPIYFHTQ

Row | Plasma Stability Mouse [2] [h] | Plasma Stability Human [3] [h] | fold decrease in binding affinity compared to IPAG [6] | photo-stability [7] | SMILES | acute cytotoxicity [1] | antiproliferative activity, potency [1] [nM] | also measured
1 | >6 | >6 | – | – | N=C(NCCCOc1ccc(F)cc1)Nc1ccc(Cl)cc1 [compound 4, 1-(4-chlorophenyl)-3-(3-(4-fluorophenoxy)propyl)guanidine] | not acutely cytotoxic | 3000 to 20000 | V ([4]; Data set 1): 91.0 L/kg; V ([4]; Data set 2): 57.6 L/kg; AUC ([4]; Data set 1): 57 ng·h/mL; AUC ([4]; Data set 2): 71 ng·h/mL; clearance ([4]; Data set 1): 586 mL/min/kg; clearance ([4]; Data set 2): 469 mL/min/kg; dose escalation of exposure, oral 10 mg/kg to 30 mg/kg ([4]; oral route, 10 mg/kg to 30 mg/kg): < 3 fold; Cmax [5]: 691 ng/g
2 | >6 | >6 | 5–10 fold | photo-stability issue similar to IPAG | N=C(NCCCOc1ccc(F)cc1)Nc1ccc(I)cc1 [compound 1] | not acutely cytotoxic | 3000 to 20000 | –
3 | – | – | 5–10 fold | – | N=C(NCCCOc1ccc(F)cc1)Nc1ccc(C(F)(F)F)cc1 [compound 6] | – | – | –
4 | – | – | – | photo-stability issue similar to IPAG | N=C(Nc1ccc(I)cc1)Nc1ccc(I)cc1 [compound 2] | – | – | Sigma1 binding affinity (in words) [6]: binding affinity similar to IPAG
5 | – | – | – | – | N=C(NCCCOc1ccc(F)cc1)NCCCOc1ccc(F)cc1 [compound 3] | – | – | Sigma1 binding affinity (in words) [6]: no affinity
6 | >6 | >6 | 5–10 fold | – | COc1ccc(NC(=N)NCCCOc2ccc(F)cc2)cc1 [compound 5] | not acutely cytotoxic | 3000 to 20000 | –
7 | – | – | – | – | C[C@]12CC[C@H](O)CC1=CC[C@@H]1[C@@H]2CC[C@]2(C)C(c3cccnc3)=CC[C@@H]12 [abiraterone] | – | – | EC50 [8]: 17100 nM

Row | SMILES | Plasma Stability Mouse [2] [h] | Plasma Stability Human [3] [h] | fold decrease in binding affinity compared to IPAG [6] | photo-stability [7] | acute cytotoxicity [1] | antiproliferative activity, potency [1] [nM] | also measured
8 | NC(=NC12CC3CC(CC(C3)C1)C2)Nc1ccc(I)cc1 [IPAG, (1-adamantan-1-yl)-3-(4-iodophenyl)guanidine, reference compound] | – | – | – | particularly unstable when exposed to normal fluorescent light | – | 3000 to 20000 | stability in solution ([7]; in solution): unstable when in solution
